Reference: patent US20230187019A1, “METHOD FOR DETERMINING A DRUG COMBINATION VIA A BLOCKING MODEL OF A MULTI-SITE-TARGETED PROTEIN AND APPLICATIONS THEREOF” (National Tsing Hua University, priority 2021, published 2023)
Entries after “also recorded” stand apart in the source; their conditions may differ. Read-outs that look alike come from different tables or passages of the source.

Assays:
shATG4B/HCT116 = assay: Cell viability assay on shATG4B/HCT116 (ATG4B silencing strain); assay type: cell-based, human; conditions: for viability at 20 µM: Homo sapiens; for difference of cell viability inhibition between shATG4B/HCT116 (S strain) and shCtrl/HCT116 (C strain): Student's t-test, p-value <0.05; for shATG4B/HCT116 Cell Viability: remaining viability
shCtrl/HCT116 = assay: Cell viability assay on shCtrl/HCT116 (control strain); assay type: cell-based, human; conditions: for viability at 20 µM: Homo sapiens; for shCtrl/HCT116 Cell Viability: remaining viability
HCT116 = assay: Cell viability assay on HCT116; assay type: cell-based, human; conditions: for viability at 20 µM: Homo sapiens; for HCT116 Cell Viability: remaining viability
AsPC-1 = assay: Cell viability assay (MTT) on AsPC-1; conditions: for viability at 20 µM: Homo sapiens, ASPC1, read-out: AsPC-1 Cell Viability, remaining viability, 20 μM drug, normalized by blank control, three repeats; for AsPC-1 Cell Viability: remaining viability, 20 μM drug, normalized by blank control, three repeats; for inhibition of cell viability, significance: 20 μM, AsPC-1, p-value <0.05
AK4.4 = assay: Cell viability assay (MTT) on AK4.4; conditions: Mus musculus, read-out: IC50, Pn
ATG4B = ATG4B (Homo sapiens, UniProt Q9Y4P1); assay: In vitro cleavage assay of ATG4B catalytic activity (western blot of tagged LC3B); assay type: biochemical; conditions: read-out: inhibition on ATG4B's catalytic activity
[1] = target: full-length fusion protein composed of C-Myc, pro-LC3B, and S-tag, Q9GZQ8
[2] = HCT-116, remaining viability, 20 μM drug, S strain, read-out: shATG4B/HCT116 Cell Viability
[3] = HCT-116, remaining viability, 20 μM drug, C strain, read-out: shCtrl/HCT116 Cell Viability
[4] = HCT-116, remaining viability, 20 μM drug, normalized by blank control, three repeats, read-out: HCT116 Cell Viability
[5] = 20 μM drug, normalized by blank control, three repeats

Row | Molecule | viability at 20 µM (shATG4B/HCT116; [2]) [%] | viability at 20 µM (shCtrl/HCT116; [3]) [%] | viability at 20 µM (HCT116; [4]) [%] | viability at 20 µM (AsPC-1) [%] | HCT116 Cell Viability (HCT116; [5]) [%] | inhibition of cell viability, significance (AsPC-1) | other results
1 | Cc1cnc(C(=O)N[C@H]2CCCCC/C=C\[C@@H]3C[C@@]3(C(=O)NS(=O)(=O)C3CC3)NC(=O)[C@@H]3C[C@@H](Oc4nc5ccccc5c5ccccc45)CN3C2=O)cn1 [Paritaprevir] | 88 ± 1.4 | 75.4 ± 1.3 | 85.8 ± 3.3 | 98.7 ± 3 | – | – | difference of cell viability inhibition between shATG4B/HCT116 (S strain) and shCtrl/HCT116 (C strain) (shATG4B/HCT116): statistically significant; also recorded: significant differences
2 | O=C(c1c2ccccc2cc2ccccc12)N1CCC(N2CCC[C@@H](C(=O)N3CCOCC3)C2)CC1 [CP-640186] | – | – | – | – | 84.3 ± 2.0 | – | AsPC-1 Cell Viability (AsPC-1): 87.4 ± 4.7%
3 | CC(C)(C)NC(=O)[C@@H]1C[C@@H]2CCCC[C@@H]2CN1C[C@@H](O)[C@H](Cc1ccccc1)NC(=O)[C@H](CC(N)=O)NC(=O)c1ccc2ccccc2n1 [Saquinavir] | 65.4 ± 1.2 | 63.5 ± 0.8 | 67 ± 1.2 | 84.6 ± 5.5 | – | – | –
4 | Cc1cc(-c2ccc(/N=N/c3ccc4c(S(=O)(=O)O)cc(S(=O)(=O)O)c(N)c4c3O)c(C)c2)ccc1/N=N/c1ccc2c(S(=O)(=O)O)cc(S(=O)(=O)O)c(N)c2c1O [Evans Blue] | 34 | 35 | 35 | 34 | 34.8 ± 1.3 | statistically significant | shATG4B/HCT116 Cell Viability (shATG4B/HCT116; 20 μM drug, S strain): 34.5 ± 1.7%; shCtrl/HCT116 Cell Viability (shCtrl/HCT116; 20 μM drug, C strain): 34.9 ± 0.3%; AsPC-1 Cell Viability (AsPC-1): 33.6 ± 1.2%
5 | Cc1nc2c([nH]1)-c1ccccc1N(C(=O)c1ccc(NC(=O)c3ccccc3-c3ccccc3)cc1)CC2 [Conivaptan] | 84 ± 2 | 69.5 ± 2.2 | 67.8 ± 0.5 | 99.3 ± 2.8 | – | – | –
6 | Cc1ccc(C(=O)Nc2ccc(CN3CCN(C)CC3)c(C(F)(F)F)c2)cc1C#Cc1cnc2cccnn12 [Ponatinib] | 31 | 21 | 19 | 47 | 18.5 ± 0.6 | – | IC50 (AK4.4): 0.51 µM; shCtrl/HCT116 Cell Viability (shCtrl/HCT116; 20 μM drug, C strain): 21.3 ± 0.6%; inhibition at 5 µM (ATG4B): 30%; AsPC-1 Cell Viability (AsPC-1): 47.2 ± 1.3%
7 | CC[C@@]1(O)C[C@H](O[C@H]2C[C@H](N(C)C)[C@H](O[C@H]3C[C@H](O)[C@H](O[C@H]4CCC(=O)[C@H](C)O4)[C@H](C)O3)[C@H](C)O2)c2c(cc3c(c2O)C(=O)c2c(O)cccc2C3=O)[C@H]1C(=O)OC [Aclacinomycin A] | – | – | – | – | 27.9 ± 1.3 | statistically significant | difference of cell viability inhibition between shATG4B/HCT116 (S strain) and shCtrl/HCT116 (C strain) (shATG4B/HCT116): statistically significant; also recorded: significant differences; shATG4B/HCT116 Cell Viability (shATG4B/HCT116; 20 μM drug, S strain): 38.4 ± 1.3%; shATG4B/HCT116 Cell Viability (shATG4B/HCT116; 20 μM drug, S strain, listed as aclacinomycin A): 38%; shCtrl/HCT116 Cell Viability (shCtrl/HCT116; 20 μM drug, C strain): 27.7 ± 1.2%; shCtrl/HCT116 Cell Viability (shCtrl/HCT116; 20 μM drug, C strain, listed as aclacinomycin A): 28%; HCT116 Cell Viability (HCT116; 20 μM drug, normalized by blank control, three repeats, listed as aclacinomycin A): 28%; AsPC-1 Cell Viability (AsPC-1): 48.3 ± 4.6%; AsPC-1 Cell Viability (AsPC-1; listed as aclacinomycin A): 48%
8 | Cc1ccc(C(=O)Nc2ccc(S(=O)(=O)O)c3cc(S(=O)(=O)O)cc(S(=O)(=O)O)c23)cc1NC(=O)c1cccc(NC(=O)Nc2cccc(C(=O)Nc3cc(C(=O)Nc4ccc(S(=O)(=O)O)c5cc(S(=O)(=O)O)cc(S(=O)(=O)O)c45)ccc3C)c2)c1 [Suramin] | 98.3 ± 0.7 | 104 ± 4.4 | 100 ± 2.3 | 107 ± 6.5 | – | – | –
9 | COC(=O)N[C@H](C(=O)N1CC2(CC2)C[C@H]1c1nc(-c2ccc3c(c2)C(F)(F)c2cc(-c4ccc5[nH]c([C@@H]6[C@H]7CC[C@H](C7)N6C(=O)[C@@H](NC(=O)OC)C(C)C)nc5c4)ccc2-3)c[nH]1)C(C)C [Ledipasvir] | – | – | – | 95.2 ± 2.9 | – | – | viability at 20 µM (shATG4B/HCT116; HCT-116, read-out: shATG4B/HCT116 Cell Viability): 90.2 ± 1.8%; difference of cell viability inhibition between shATG4B/HCT116 (S strain) and shCtrl/HCT116 (C strain) (shATG4B/HCT116): statistically significant; also recorded: significant differences; viability at 20 µM (shCtrl/HCT116; HCT-116, read-out: shCtrl/HCT116 Cell Viability, remaining viability, 20 μM drug, C strain): 72.5 ± 0.8%; viability at 20 µM (HCT116; HCT-116, read-out: HCT116 Cell Viability, remaining viability, 20 μM drug, normalized by blank control, three repeats): 82.9 ± 2.7%
10 | C#C[C@]1(O)CC[C@H]2[C@@H]3CCc4cc(O)ccc4[C@H]3CC[C@@]21C [Ethynyl Estradiol] | 70 | 49 | 47 | 80.1 ± 6.4 | 47.4 ± 1.8 | statistically significant | difference of cell viability inhibition between shATG4B/HCT116 (S strain) and shCtrl/HCT116 (C strain) (shATG4B/HCT116): statistically significant; also recorded: significant differences; shATG4B/HCT116 Cell Viability (shATG4B/HCT116; 20 μM drug, S strain): 69.5 ± 3.3%; shCtrl/HCT116 Cell Viability (shCtrl/HCT116; 20 μM drug, C strain): 48.7 ± 1.4%
11 | COc1ccc2c(c1)C(=O)N(CCc1ccc(S(=O)(=O)NC(=O)NC3CCCCC3)cc1)C(=O)C2(C)C [Gliquidone] | 89.6 ± 0.6 | 88.4 ± 7.3 | 87 ± 1.6 | 92.4 ± 5.3 | – | – | –
12 | Cc1cn(-c2cc(NC(=O)c3ccc(C)c(Nc4nccc(-c5cccnc5)n4)c3)cc(C(F)(F)F)c2)cn1 [Nilotinib] | 68.2 ± 1.1 | 59.6 ± 1.7 | 61.4 ± 4.4 | 95.2 ± 3.4 | – | – | –
13 | CC(C)[C@@]1(NC(=O)[C@@H]2C[C@@H]3c4cccc5[nH]cc(c45)C[C@H]3N(C)C2)O[C@@]2(O)[C@@H]3CCCN3C(=O)[C@H](Cc3ccccc3)N2C1=O [Dihydroergocristine] | – | – | 64 ± 3.7 | 77.1 ± 1.6 | – | statistically significant | –
14 | COC(=O)N[C@H](C(=O)N1CCC[C@H]1c1nc(-c2ccc(-c3ccc(-c4c[nH]c([C@@H]5CCCN5C(=O)[C@@H](NC(=O)OC)C(C)C)n4)cc3)cc2)c[nH]1)C(C)C [Daclatasvir] | 69.4 ± 3.7 | 58.8 ± 2.6 | 62.7 ± 0.3 | 71.1 ± 4.2 | – | – | –
15 | CCC(C)n1ncn(-c2ccc(N3CCN(c4ccc(OCC5COC(Cn6cncn6)(c6ccc(Cl)cc6Cl)O5)cc4)CC3)cc2)c1=O (stereo not shown) [Itraconazole] | 91.3 ± 2.3 | 84.1 ± 1.9 | 82.6 ± 2.1 | 93.6 ± 6.3 | – | – | –
16 | Cc1ccccc1-c1cc(N2CCN(C)CC2)ncc1N(C)C(=O)C(C)(C)c1cc(C(F)(F)F)cc(C(F)(F)F)c1 [Netupitant] | – | – | 3 | 43 | 2.8 ± 0.4 | statistically significant | AsPC-1 Cell Viability (AsPC-1): 42.9 ± 5.1%
17 | CO[C@H]1C[C@@H]2CC[C@@H](C)[C@@](O)(O2)C(=O)C(=O)N2CCCC[C@H]2C(=O)O[C@H]([C@H](C)C[C@@H]2CC[C@@H](OC(=O)C(C)(CO)CO)[C@H](OC)C2)CC(=O)[C@H](C)/C=C(\C)[C@@H](O)[C@@H](OC)C(=O)[C@H](C)C[C@H](C)/C=C/C=C/C=C/1C [Temsirolimus] | 60 | 50 | 52.1 ± 0.9 | 69 ± 4.2 | – | statistically significant | difference of cell viability inhibition between shATG4B/HCT116 (S strain) and shCtrl/HCT116 (C strain) (shATG4B/HCT116; listed as emsirolimus): significant differences; difference of cell viability inhibition between shATG4B/HCT116 (S strain) and shCtrl/HCT116 (C strain) (shATG4B/HCT116; listed as temsirolimus): statistically significant; shATG4B/HCT116 Cell Viability (shATG4B/HCT116; 20 μM drug, S strain): 60.5 ± 1.9%; shCtrl/HCT116 Cell Viability (shCtrl/HCT116; 20 μM drug, C strain): 49.5 ± 3.5%
18 | C[C@@H]1CCO[C@H]2Cn3cc(C(=O)NCc4ccc(F)cc4F)c(=O)c(O)c3C(=O)N12 [Dolutegravir] | 89.4 ± 2.5 | 85.5 ± 2.9 | 88 ± 4 | 106 ± 5.3 | – | – | difference of cell viability inhibition between shATG4B/HCT116 (S strain) and shCtrl/HCT116 (C strain) (shATG4B/HCT116): statistically significant; also recorded: significant differences
19 | autophagy related 4B cysteine peptidase (ATG4B) (protein) MDAATLTYDTLRFAEFEDFPETSEPVWILGRKYSIFTEKDEILSDVASRLWFTYRKNFPAIGGTGPTSDTGWGCMLRCGQMIFAQALVCRHLGRDWRWTQRKRQPDSYFSVLNAFIDRKDSYYSIHQIAQMGVGEGKSIGQWYGPNTVAQVLKKLAVFDTWSSLAVHIAMDNTVVMEEIRRLCRTSVPCAGATAFPADSDRHCNGFPAGAEVTNRPSPWRPLVLLIPLRLGLTDINEAYVETLKHCFMMPQSLGVIGGKPNSAHYFIGYVGEELIYLDPHTTQPAVEPTDGCFIPDESFHCQHPPCRMSIAELDPSIAVGFFCKTEDDFNDWCQQVKKLSLLGGALPMFELVELQPSHLACPDVLNLSLDSSDVERLERFFDSEDEDFEILSL | – | – | – | – | – | – | cleavage of recombinant pro-LC3B (S-tag band on western blot) [1]: P: positive control, pro-LC3 mixed with ATG4B, and the cleavage by ATG4B resulting in the lighter band for S-tag; normalized S-tag band intensity (LICOR; divided by the negative control N) of lane P, no peptide, blot of the N7 series, ATG4B cleavage assay [1]: 0.3; normalized S-tag band intensity (divided by the negative control N) of lane P, no peptide, blot of the N18 series, ATG4B cleavage assay [1]: 0.3; normalized S-tag band intensity (image J; divided by the negative control N) of lane P, no peptide, blot of the N7 series, ATG4B cleavage assay [1]: 0.4
